In article PMC12475007 (2025):

Experiments:
Assay in all cases: fluorescence bead binding assay
Conditions in all cases: binding buffer, room temperature, 1 h; immobilised compound (on beads)
[1] = test system: P2 (DNA, aptamer) AGACGTGATGAAGTTCAATCAGGATGCAATGTATTAATGG
[2] = test system: P1 (DNA, aptamer) TGCGGAGCGAGGCCCTAGGCGTGGTGGCATTGATTTGTAT
[3] = test system: P5 (DNA, aptamer) ACATGTGTAGGCGGTTGGATGCATTATGAGATGGGACATG
[4] = test system: P4 (DNA, aptamer) TGTGCATTCGTGTGAATTAACTCGTCCACCAGAGCCCGTG
[5] = test system: P3 (DNA, aptamer) CCAAGCATCGTCACATCACATTATCACACATTGTCGTCCGT
[6] = test system: L2 (DNA, aptamer) CCCATCACCACATTGTCACATCACTCGTCACATACAGCCCG
[7] = test system: L1 (DNA, aptamer) CAGTCTGCGCCGATTTCTCGCGGATTGCGACGAGGATACG
[8] = test system: L3 (DNA, aptamer) CACACATACGGGAGAGGCCCCATAAACTCATGCACGTCCTG
[9] = test system: L4 (DNA, aptamer) TAAGCCCGGCTGAGATAACGGTTGATCCGAAGCTGGTTTT

| Kd [1] | Kd [2] | Kd [3] | Kd [4] | Kd [5] | Kd [6] | Kd [7] | Kd [8] | Kd [9] | SMILES |
| --- | --- | --- | --- | --- | --- | --- | --- | --- | --- |
| 484.2 nM | 139.2 nM | 54.07 nM | 208.1 nM | 38.02 nM | – | – | – | – | CC(=O)O[C@H]1C(=O)[C@@]2(C)[C@H]([C@H](OC(=O)c3ccccc3)[C@]3(O)C[C@H](OC(=O)[C@H](O)[C@@H](NC(=O)c4ccccc4)c4ccccc4)C(C)=C1C3(C)C)[C@]1(OC(C)=O)CO[C@@H]1C[C@@H]2O |
| – | – | – | – | – | 284.2 nM | 125.7 nM | 225.7 nM | 285.7 nM | Nc1nc(=O)c2c([nH]1)NC[C@@H](CNc1ccc(C(=O)N[C@@H](CCC(=O)O)C(=O)O)cc1)N2C=O |
